Patent US9120780B2, “Indole or indazole derivative or salt thereof” (TAIHO PHARMACEUTICAL CO., LTD., priority 2011, dated 2015)

What was measured:
[1] = molecular target: human HSP90 alpha protein (N-terminal, amino acids 2-236) (Homo sapiens (Human), UniProt P07900); assay: Measurement of HSP90-binding activity (AlphaScreen competitive assay, biotin-labeled geldanamycin); conditions: inhibition of biotin-labeled geldanamycin binding to purified HSP90; read-out: HSP-binding activity IC50
Procedure: First, a solution of purified HSP90 was prepared as follows. […] The pET-HSP90N was introduced into Escherichia coli cells (BL21 (DE3), Stratagene Inc.), and then the Escherichia coli cells were cultured in the presence of 0.5 mM isopropyl-beta-D-thiogalactopyranoside (Sigma-Aldrich Corp.) at 37° C. for 4 hours. The Escherichia coli cells were collected, suspended in a lysis buffer (50 mM Tris-HCl (pH 7.5), 200 mM NaCl), and sonicated. The sonicated cell solution was centrifuged (40,000×g, 20 minutes) to obtain supernatant as a crude extract. The crude extract was fractionated by Ni Sepharose High Performance (GE Healthcare Japan Corporation) chromatography and HiLoad 26/60 Superdex 75 pg (GE Healthcare Japan Corporation), and the fraction in which HSP90 protein was concentrated was prepared so as to be a 50 mM Tris-HCl (pH 7.5)/20% glycerol solution as a purified HSP90 solution. The purified HSP90 solution was divided and stored at −80° C. until use.
The HSP90-binding activity was measured by an AlphaScreen competitive assay system. […] After reaction at room temperature for 2 hours, biotin-labeled geldanamycin was added to each reaction solution in an amount of 40 nM, followed by reaction for further 1 hour. […] After reaction in a dark place at room temperature for 1 hour, the fluorescence intensity in each well was measured with a multilabel plate reader, EnVision (Perkin Elmer, Inc.). The inhibition rate (%) of biotin-labeled geldanamycin binding by a compound of the present invention was determined by the following equation using the fluorescence signal of a test substance-free group (control) as a control. […] Inhibition rate (%)=(C−T)/C×100 T: signal in a well to which a test substance was added C: signal in a well to which no test substance was added

SK-BR-3 cells = assay: Measurement of cell growth inhibition (crystal violet staining); type: cell-based; conditions: Homo sapiens, 72 hours culture with test substance
Procedure: Cell growth was measured by a crystal violet staining method. […] The cells were cultured in a 5% CO2 incubator at 37° C. for 24 hours, and then test substances were added to the plate, followed by culturing for further 72 hours. […] The plate was left to stand at room temperature for 20 minutes for staining the cells. The plate was washed with water and dried, and 100 μL of a mixed solution of 0.05 M NaH2PO4 and ethanol (mixture in equal amounts) was added to each well. The absorbance at 540 nm was measured with a microplate reader (MTP-450, Corona Electric Co., Ltd.) as an index of the number of cells in each well. The inhibition rate (%) of cell growth by a compound of the present invention was determined by the following equation using the absorbance of a drug-untreated group (control) as a control. […] Inhibition rate (%)=(C−T)/C×100 T: absorbance in a well to which a test substance was added C: absorbance in a well to which no test substance was added

| IC50 [1] [nM] | IC50 (SK-BR-3 cells) [nM] | SMILES |
| --- | --- | --- |
| 200 | 60 | CC(C)c1nn(-c2ccc(C(N)=O)cc2NC2CCC2)c2cccc(-n3cnc(-c4cnn(C)c4)c3)c12 [Example 13, 3-(Cyclobutylamino)-4-(3-Isopropyl-4-(4-(1-methyl-1H-pyrazol-4-yl)-1H-imidazol-1-yl)-1H-indazol-1-yl)benzamide] |
| 190 | 50 | Cc1cn(-c2ccc(C(N)=O)c(NC(C)(C)C)c2)c2cccc(-n3cnc(-c4cnn(C)c4)c3)c12 [Example 46, 2-(Tert-butylamino)-4-{3-methyl-4-(4-(1-methyl-1H-pyrazolo-4-yl)-1H-imidazolo-1-yl)-1H-indol-1-yl}benzamide] |
| > 10000 | > 10000 | COc1cc2ccn(-c3ccc(C(N)=O)c(Nc4ccccc4)c3)c2cc1OC [Comparative Example 4, reference compound] |
| 740 | 560 | CC(C)c1nn(-c2ccc(C(N)=O)cc2Cl)c2cccc(-n3cnc(-c4cccnc4)c3)c12 [Example 3, 3-Chloro-4-(3-isopropyl-4-(4-(pyridin-3-yl)-1H-imidazol-1-yl)-1H-indazol-1-yl)benzamide] |
| 100 | 170 | NC(=O)c1ccc(-n2nc(C(F)(F)F)c3c(-n4cnc(-c5cccnc5)c4)cccc32)c(N)c1 [Example 25, 3-Amino-4-(4-(4-(pyridin-3-yl)-1H-imidazol-1-yl)-3-(trifluoromethyl)-1H-indazol-1-yl)benzamide] |
| 430 | 120 | Cc1cn(-c2ccc(C(N)=O)c(NC(C)(C)C)c2)c2cccc(-n3cnc(-c4cccnc4)c3)c12 [Example 47, 2-(Tert-butylamino)-4-{3-methyl-4-(4-(pyridin-3-yl)-1H-imidazolo-1-yl)-1H-indol-1-yl}benzamide] |
| 170 | 100 | CCc1cc(C(N)=O)ccc1-n1nc(C(F)(F)F)c2c(-n3cnc(-c4cccnc4)c3)cccc21 [Example 19, 3-Ethyl-4-(4-(4-(pyridin-3-yl)-1H-imidazol-1-yl)-3-(trifluoromethyl)-1H-indazol-1-yl)benzamide] |
| > 10000 |  | COc1cc2ccn(-c3ccc(C#N)c(Nc4ccccc4)c3)c2cc1OC [Comparative Example 3, reference compound] |
| 260 | 10 | CCc1cn(-c2ccc(C(N)=O)c(NC(C)(C)C)c2)c2cccc(-n3cnc(-c4cnn(C)c4)c3)c12 [Example 48, 2-(Tert-butylamino)-4-{3-ethyl-4-(4-(1-methyl-1H-pyrazolo-4-yl)-1H-imidazolo-1-yl)-1H-indol-1-yl}benzamide] |
| 300 | 80 | CC(C)c1nn(-c2ccc(C(N)=O)cc2NC2CCC2)c2cccc(-n3cnc(-c4cccnc4)c3)c12 [Example 11, 3-(Cyclobutylamino)-4-(3-isopropyl-4-(4-(pyridin-3-yl)-1H-imidazol-1-yl)-1H-indazol-1-yl)benzamide] |
| 420 | 20 | CC(C)c1cn(-c2ccc(C(N)=O)c(NC(C)(C)C)c2)c2cccc(-n3cnc(-c4cnn(C)c4)c3)c12 [Example 52, 2-(Tert-butylamino)-4-{3-isopropyl-4-(4-(1-methyl-1H-pyrazolo-4-yl)-1H-imidazolo-1-yl)-1H-indol-1-yl}benzamide] |
| 120 | 60 | CC(C)Nc1cc(C(N)=O)ccc1-n1nc(C(C)C)c2c(-n3cnc(-c4cnn(C)c4)c3)cccc21 [Example 12, 4-(3-Isopropyl-4-(4-(1-methyl-1H-pyrazol-4-yl)-1H-imidazol-1-yl)-1H-indazol-1-yl)-3-(isopropylamino)benzamide] |
| 150 | 70 | Cn1cc(-c2cn(-c3cccc4c3c(C(F)(F)F)nn4-c3ccc(C(N)=O)cc3NC3CCC3)cn2)cn1 [Example 21, 3-(Cyclobutylamino)-4-(4-(4-(1-methyl-1H-pyrazol-4-yl)-1H-imidazol-1-yl)-3-(trifluoromethyl)-1H-indazol-1-yl)benzamide] |
| 280 | 170 | NC(=O)c1ccc(-n2nc(C(F)(F)F)c3c(-n4cnc(-c5cccnc5)c4)cccc32)c(NC2CCC2)c1 [Example 23, 3-(Cyclobutylamino)-4-(4-(4-(pyridin-3-yl)-1H-imidazol-1-yl)-3-(trifluoromethyl)-1H-indazol-1-yl)benzamide] |
| 250 | 100 | CC(C)Nc1cc(C(N)=O)ccc1-n1nc(C(C)C)c2c(-n3cnc(-c4cccnc4)c3)cccc21 [Example 10, 4-(3-Isopropyl-4-(4-(pyridin-3-yl)-1H-imidazol-1-yl)-1H-indazol-1-yl)-3-(isopropylamino)benzamide] |
| > 100000 |  | COc1ccc2ccn(-c3ccc(C(N)=O)c(NC4CCC(O)CC4)c3)c2c1 (stereo not shown) [Comparative Example 1, reference compound] |
| 160 | 60 | CCc1cc(C(N)=O)ccc1-n1cc(C(C)C)c2c(-n3cnc(-c4cnn(C)c4)c3)cccc21 [Example 51, 3-Ethyl-4-{3-isopropyl-4-(4-(1-methyl-1H-pyrazolo-4-yl)-1H-imidazolo-1-yl)-1H-indol-1-yl}benzamide] |
| 160 | 140 | Cc1cc(C(N)=O)ccc1-n1nc(C(C)C)c2c(-n3cnc(-c4cccnc4)c3)cccc21 [Example 4, 4-(3-Isopropyl-4-(4-(pyridin-3-yl)-1H-imidazol-1-yl)-1H-indazol-1-yl)-3-methylbenzamide] |
| > 100000 |  | NC(=O)c1ccc(-n2ccc3ccccc32)c(Cl)c1 [Comparative Example 6, reference compound] |
| 490 | 300 | Cc1cc(C(N)=O)ccc1-n1nc(C(F)(F)F)c2c(-n3cnc(-c4cccnc4)c3)cccc21 [Example 17, 3-Methyl-4-(4-(4-(pyridin-3-yl)-1H-imidazol-1-yl)-3-(trifluoromethyl)-1H-indazol-1-yl)benzamide] |
| > 100000 | > 10000 | COc1ccc2c(c1)cc(C)n2-c1ccc(C(N)=O)c(Nc2ccccc2)c1 [Comparative Example 5, reference compound] |
| 290 | 30 | CC(C)(C)Nc1cc(-n2nc(C(F)(F)F)c3c(-n4cnc(-c5cccnc5)c4)cccc32)ccc1C(N)=O [Example 16, 2-(Tert-butylamino)-4-(4-(4-(pyridin-3-yl)-1H-imidazol-1-yl)-3-(trifluoromethyl)-1H-indazol-1-yl)benzamide] |
| 80 | 130 | Cn1cc(-c2cn(-c3cccc4c3c(C(F)(F)F)nn4-c3ccc(C(N)=O)cc3N)cn2)cn1 [Example 24, 3-Amino-4-(4-(4-(1-methyl-1H-pyrazol-4-yl)-1H-imidazol-1-yl)-3-(trifluoromethyl)-1H-indazol-1-yl)benzamide] |
| 90 | 50 | CCc1cc(C(N)=O)ccc1-n1nc(C(F)(F)F)c2c(-n3cnc(-c4cnn(C)c4)c3)cccc21 [Example 18, 3-Ethyl-4-(4-(4-(1-methyl-1H-pyrazol-4-yl)-1H-imidazol-1-yl)-3-(trifluoromethyl)-1H-indazol-1-yl)benzamide] |
| 240 | 270 | CC(C)c1nn(-c2ccc(C(N)=O)cc2Cl)c2cccc(-n3cnc(-c4cnn(C)c4)c3)c12 [Example 5, 3-Chloro-4-(3-isopropyl-4-(4-(1-methyl-1H-pyrazol-4-yl)-1H-imidazol-1-yl)-1H-indazol-1-yl)benzamide] |
| 230 | 20 | CCNc1cc(-n2nc(C(F)(F)F)c3c(-n4cnc(-c5cnn(C)c5)c4)cccc32)ccc1C(N)=O [Example 15, 2-(Ethylamino)-4-(4-(4-(1-methyl-1H-pyrazol-4-yl)-1H-imidazol-1-yl)-3-(trifluoromethyl)-1H-indazol-1-yl)benzamide] |
| 270 | 10 | Cn1cc(-c2cn(-c3cccc4c3c(C(F)(F)F)nn4-c3ccc(C(N)=O)c(NC(C)(C)C)c3)cn2)cn1 [Example 14, 2-(Tert-butylamino)-4-(4-(4-(1-methyl-1H-pyrazol-4-yl)-1H-imidazol-1-yl)-3-(trifluoromethyl)-1H-indazol-1-yl)benzamide] |

| SMILES | IC50 [1] [nM] | IC50 (SK-BR-3 cells) [nM] |
| --- | --- | --- |
| COc1cccc2c1ccn2-c1ccc(C(N)=O)c(NC2CCC(O)CC2)c1 (stereo not shown) [Comparative Example 2, reference compound] | > 100000 |  |
